This experiment has as its system P. vulgaris NCTC4175. Briefly: Urease assay: effect of fragrance on ammonia production (pH of urea-supplemented microbial suspension). Type of experiment: cell-based. The conditions noted are these: result in words. As to the method:
Urease Assay—Estimation of Fragrance and Fragrance Ingredients Effect on Ammonia Production The method adopted was based on the rapid method devised by C. A. Stuart, Elizabeth van Stratum and Robert Rustigan Further Studies on Urease Production by Proteus and Related Organisms J. Bacteriol. 1945, 49:437-444. SSR Medium: 380 ml distilled water, 364 mg KH2PO4, 380 mg Na2HPO4, 8 g Urea, 40 mg Yeast extract, 20 ml 0.02% phenol red indicator, pH 6.8, solution filter sterilised. Culture: Liquid culture of P. vulgaris NCTC4175 was prepared by adding loops of fresh culture from solid media (Tryptone Soya Agar) to sterile 0.1% special peptone solution. Absorbance of culture was adjusted to be OD610 nm>2.3 Fragrances were aseptically prepared at 2500 ppm in medium in duplicate (5 ml volumes) using solubiser Synperonic 91/10 at ratio of 1:2 fragrance: solubiliser. In addition 5 ml volumes of positive and negative controls were prepared. Positive controls and all test solutions were inoculated by adding 200 μl of prepared culture, mixed and incubated for 24 hours @37° C. No culture was added to the negative growth controls. Initially solutions were orange in colour. Urease activity can be noted by the production of a purple/red colour. The degree of urease activity/ammonia production was assessed by pH electrode.

For `CCC(=O)N(CC)c1cccc(C)c1` [N-ethyl-N-(3-methylphenyl)propananoide, N-ethyl-N-(3-methylphenyl)propanamide], the urease inhibitory efficacy result is reported as “highly active”.

For the origin of these results see US8821847B2, “Perfume compositions” (Givaudan Nederland Services B.V., priority 2006, dated 2014).
